# Experimental data taken from US20090298707A1, “SPARSE MATRIX SYSTEM AND METHOD FOR IDENTIFICATION OF SPECIFIC LIGANDS OR TARGETS” (priority 2008, published 2009).
# Assays:
# [1] = per amino acid; cited from earlier work
# [2] = Confocal laser scanning microscopy of labeled peptides on tooth sections; assay type: binding; conditions: sectioned human tooth, CLSM
# Excerpt: The fluorescein-labeled peptides in the initial pilot library were pooled and screened by Confocal Laser Scanning Microscopy as follows. The quadrants of the library were collected into four pools of 9 peptides each. Peptides were screened by exposing the pooled, 5(6)-carboxyfluorescein-labeled peptides to sections taken from human teeth (extracted during normal clinical practice), followed by visualization of the samples by Confocal Laser Scanning Microscopy (CLSM).
# M. luteus MS2 = experiment: Pulldown binding assay, Langmuir isotherm fit, M. luteus; design: species or system Micrococcus luteus; conditions: for Langmuir Affinity (Ka): association constant from Langmuir isotherm fit; for Monolayer Concentration (N): maximum surface concentration from Langmuir fit
# Excerpt: (§1) To investigate whether the changes in the observed level of binding were due to changes in the affinities or avidities of the refined peptides for cell surfaces, binding curves were generated for selected peptides and fit to the Langmuir isotherm (where possible), the simplest model describing binding to surfaces (peptides showing either complex or nonspecific binding isotherms were excluded from this analysis).
# (§2) Measurements were taken of the absorbance of the labeled peptide at 488 nm (the peak absorbance of the fluorescein label) before and after exposure to the cells. The amount of peptide bound was calculated by comparing the ratio of the final (Af) and initial (Ai) absorbances to the initial concentration (C0)[Cbound=C0(1−(Af/Ai))]. Bacterial surface area per sample was calculated using a stage micrometer to determine the average cell diameter for each species (1.0+/−0.1 μm for S. aureus AM1, 2.7+/−0.1 μm for M. luteus MS2), treating individual cells as discrete spheres. Average cell concentration per unit OD600 was calculated using a hemocytometer.
# (§3) Plots were then generated of the amount of peptide bound per m^2 of bacterial surface area vs. the concentration of unbound peptide at equilibrium. Where possible, the resulting isotherms were fit to the Langmuir isotherm (P/A=(KaNCeq)/(1+KaCeq), where P/A represents the molar amount of peptide bound per unit of bacterial surface area, Ka is the association constant of the peptide with the bacterial surface (L/Mol), N is the maximum surface concentration (mol/m^2), and Ceq is the molar concentration of unbound peptide at equilibrium) (Calis et al. (1995) Pharm Res 12(7): 1072-1076). Data plots and curvefits were obtained using Kaleidagraph (Synergy Software).
# S. aureus AM1 = experiment: Pulldown binding assay, Langmuir isotherm fit, S. aureus; design: species or system Staphylococcus aureus; conditions: for Langmuir Affinity (Ka): association constant from Langmuir isotherm fit, fluorescein-labeled peptide 0-100 μM; for Monolayer Concentration (N): maximum surface concentration from Langmuir fit
# Excerpt: as §1, §2, §3
# [3] = test system: immobilized S. aureus cells; experiment: Fluorescence microscopy binding of labeled peptides to immobilized bacteria, S. aureus; design: species or system Staphylococcus aureus; conditions: for Binding to S. aureus (fluorescent staining): 25 μM fluorescein-labeled peptide, 10 minutes, immobilized cells; for Binding to immobilized S. aureus relative to peptides of the original pilot library: refined libraries, fluorescence images
# Method: Peptide samples were prepared at a concentration of 25 μM for screening against a variety of organisms by exposing immobilized bacteria to labeled peptides. For bacterial cell binding assays, cells were grown overnight, washed, and immobilized in a polylysine-coated 96-well plate. Fluorescein-labeled peptide samples were applied to immobilized bacteria, incubated for 10 minutes and washed extensively to remove unbound peptide. Samples were visualized by fluorescence microscopy. For each peptide, both brightfield and fluorescence images were collected, and camera and microscope settings were not altered between images. The locations of cells and background regions were determined using the brightfield images; those regions were then selected in the fluorescence images for quantitation of pixel values for determination of relative fluorescence intensities (represented as bacterial fluorescence/background fluorescence) using the GNU Image Manipulation Program (The GIMP, see, e.g., www.gimp.org).
# The following bacterial species and strains were used: Lactobacillus casei (strain), Escherichia coli (W3110), Enterococcus faecium (strain), Streptococcus mutans (UA140), Streptococcus mitis (ATCC 903), Streptococcus gordonii (NY101), Pseudomonas aeruginosa(strain K), Klebsiella pneumoniae (KAY2026), Myxococcus xanthus (Strains DK1622, wildtype, and difA, exopolysaccharide deficient^21), Micrococcus luteus (strain MS2, a community isolate), Staphylococcus epidermidis (strain), and Staphylococcus aureus(strains, and AM1, a methicillin/oxacillin-resistant community isolate).
# For isolation of community-acquired S. aureus and M. luteus strains (strains MS2 and AM1), swabs were collected from the nostrils of several volunteers and streaked on Brain-Heart Infusion (BHI) agar and incubated at 37° C. overnight. Yellow colonies were isolated and typed (Microbial ID, Inc., Newark, Del.). Antibiotic resistance was assayed by plating on BHI in the presence of various antibiotics. Commercially available antibiotic susceptibility test disks were used to assay for oxacillin resistance (BD Biosciences), according to the manufacturer's instructions. Due to the difficulty of obtaining methicillin, oxacillin resistance was used as a proxy for methicillin resistance in isolated strains.^22
# The peptides comprising these two refined libraries were synthesized, labeled, and screened against immobilized S. aureus cells exactly as for the original pilot library.
# To examine the specificities of the peptides identified in this experiment, a diverse panel of various strains of bacteria was assembled, consisting of Lactobacillus casei, Escherichia coli, Enterococcus faecalis, Streptococcus mutans, Streptococcus mitis, Streptococcus gordonii, Pseudomonas aeruginosa, Klebsiella pneumoniae, Micrococcus luteus (strain MS2), Staphylococcus epidermidis, and two strains of Staphylococcus aureus: a methicillin/oxacillin-sensitive community isolate and our methicillin/oxacillin-resistant community isolate of (strain AM1). Peptides 3C and 4D from the original pilot library were screened for binding against these bacteria by fluorescence microscopy, and images were analyzed as before.
molecule,measurement,setting,value
C[C@H](N)C(=O)O [Ala],"Hydrophobicity (Fauchere and Pliska, 1983)",[1],0.31
N=C(N)NCCC[C@H](N)C(=O)O [Arg],"Hydrophobicity (Fauchere and Pliska, 1983)",[1],−1.01
NC(=O)C[C@H](N)C(=O)O [Asn],"Hydrophobicity (Fauchere and Pliska, 1983)",[1],−0.6
N[C@@H](CC(=O)O)C(=O)O [Asp],"Hydrophobicity (Fauchere and Pliska, 1983)",[1],−0.77
NC(=O)CC[C@H](N)C(=O)O [Gln],"Hydrophobicity (Fauchere and Pliska, 1983)",[1],−0.22
N[C@@H](CCC(=O)O)C(=O)O [Glu],"Hydrophobicity (Fauchere and Pliska, 1983)",[1],−0.64
NCC(=O)O [Gly],"Hydrophobicity (Fauchere and Pliska, 1983)",[1],0
N[C@@H](Cc1c[nH]cn1)C(=O)O [His],"Hydrophobicity (Fauchere and Pliska, 1983)",[1],0.13
CC[C@H](C)[C@H](N)C(=O)O [Ile],"Hydrophobicity (Fauchere and Pliska, 1983)",[1],1.8
CC(C)C[C@H](N)C(=O)O [Leu],"Hydrophobicity (Fauchere and Pliska, 1983)",[1],1.7
NCCCC[C@H](N)C(=O)O [Lys],"Hydrophobicity (Fauchere and Pliska, 1983)",[1],−0.99
CSCC[C@H](N)C(=O)O [Met],"Hydrophobicity (Fauchere and Pliska, 1983)",[1],1.23
N[C@@H](Cc1ccccc1)C(=O)O [Phe],"Hydrophobicity (Fauchere and Pliska, 1983)",[1],1.79
O=C(O)[C@@H]1CCCN1 [Pro],"Hydrophobicity (Fauchere and Pliska, 1983)",[1],0.72
C[C@@H](O)[C@H](N)C(=O)O [Thr],"Hydrophobicity (Fauchere and Pliska, 1983)",[1],0.26
N[C@@H](Cc1c[nH]c2ccccc12)C(=O)O [Trp],"Hydrophobicity (Fauchere and Pliska, 1983)",[1],2.25
N[C@@H](Cc1ccc(O)cc1)C(=O)O [Tyr],"Hydrophobicity (Fauchere and Pliska, 1983)",[1],0.96
CC(C)[C@H](N)C(=O)O [Val],"Hydrophobicity (Fauchere and Pliska, 1983)",[1],1.22
AMKDAMERM (synthetic peptide with tissue-specific binding to tooth enamel and enamel-proximal region of dentino-enamel junction) [Pilot Library 4F],Binding to dentin,[2],no obvious binding
same,Binding to tooth enamel and enamel side of the dentin-enamel junction,[2],clear binding
"In-plane refinement 3A: in-plane refined library peptide, SEQ ID NO:48 (LIERILQNL; synthetic in-plane refinement library peptide A3)",Langmuir Affinity (Ka),M. luteus MS2,8 ± 3 M^−1 × 10000
same,Nmax relative to peptides from the parent library,M. luteus MS2; in words,sharp reduction
same,Monolayer Concentration (N),M. luteus MS2,0.0047 ± 0.006 Mol/m^2 × 0.0001
same,Affinity relative to initial hits / parent peptide of the pilot library,S. aureus AM1; in words,increased affinity
same,Binding to S. aureus (fluorescent staining),[3],binding was seen only to the methicillin/oxacilin-resistant strain of S. aureus
same,Binding to immobilized S. aureus relative to peptides of the original pilot library,[3],enhanced binding
"In-plane refinement B2: in-plane refined library peptide, SEQ ID NO:51 (IVSQVIQNL; synthetic in-plane refinement library peptide B2)",Binding to immobilized S. aureus relative to peptides of the original pilot library,[3],enhanced binding
"In-plane refinement B4: in-plane refined library peptide, SEQ ID NO:53 (IVKDVIERL; synthetic in-plane refinement library peptide B4)",Binding to immobilized S. aureus relative to peptides of the original pilot library,[3],enhanced binding
"In-plane refinement C1: in-plane refined library peptide, SEQ ID NO:54 (LVSYVLTQV; synthetic in-plane refinement library peptide C1)",Binding to immobilized S. aureus relative to peptides of the original pilot library,[3],enhanced binding
"In-plane refinement C2: in-plane refined library peptide, SEQ ID NO:55 (LVSQVLQNV; synthetic in-plane refinement library peptide C2)",Binding to immobilized S. aureus relative to peptides of the original pilot library,[3],enhanced binding
"In-plane refinement C4: in-plane refined library peptide, SEQ ID NO:57 (LVKDVLERV; synthetic in-plane refinement library peptide C4)",Binding to immobilized S. aureus relative to peptides of the original pilot library,[3],enhanced binding
"Orthogonal refinement 2A: orthogonal refined library peptide, SEQ ID NO:63 (IVVILSQQN; synthetic orthogonal refinement library peptide A2)",Langmuir Affinity (Ka),M. luteus MS2,1.6 ± 0.7 M^−1 × 10000
same,KA relative to peptides from the parent library,M. luteus MS2; in words,no significant changes
same,Nmax relative to peptides from the parent library,M. luteus MS2; in words,no significant changes
same,Monolayer Concentration (N),M. luteus MS2,0.5 ± 0.2 Mol/m^2 × 0.0001
same,Langmuir Affinity (Ka),S. aureus AM1,13 ± 4 M^−1 × 10000
same,Affinity relative to initial hits / parent peptide of the pilot library,S. aureus AM1; in words,comparable affinity
same,Nmax relative to pilot library hits,S. aureus AM1; in words,significant increase
same,Monolayer Concentration (N),S. aureus AM1,0.14 ± 0.01 Mol/m^2 × 0.0001
"Orthogonal refinement 2B: orthogonal refined library peptide, SEQ ID NO:67 (IVVSQQILN; synthetic orthogonal refinement library peptide B2)",Langmuir Affinity (Ka),M. luteus MS2,0.4 ± 0.3 M^−1 × 10000
same,Monolayer Concentration (N),M. luteus MS2,0.5 ± 0.3 Mol/m^2 × 0.0001
"Orthogonal refinement 2C: orthogonal refined library peptide, SEQ ID NO:71 (IVSQVIQNL; synthetic orthogonal refinement library peptide C2)",Langmuir Affinity (Ka),M. luteus MS2,1.4 ± 0.4 M^−1 × 10000
same,Monolayer Concentration (N),M. luteus MS2,0.12 ± 0.03 Mol/m^2 × 0.0001
same,Langmuir Affinity (Ka),S. aureus AM1,1.1 ± 0.3 M^−1 × 10000
same,Monolayer Concentration (N),S. aureus AM1,7 ± 1 Mol/m^2 × 0.0001
"Pilot Library 3D: pilot library 9-mer, SEQ ID NO:29; became D1 of the in-plane matrix (SEQ ID NO:58) (VASYVATQV; synthetic pilot library peptide D3)",Langmuir Affinity (Ka),M. luteus MS2,10 ± 7 M^−1 × 10000
same,Monolayer Concentration (N),M. luteus MS2,0.021 ± 0.004 Mol/m^2 × 0.0001
same,Langmuir Affinity (Ka),S. aureus AM1,6 ± 1 M^−1 × 10000
same,Monolayer Concentration (N),S. aureus AM1,0.18 ± 0.2 Mol/m^2 × 0.0001
same,Binding to S. aureus (fluorescent staining),[3],some of the brightest unique staining
"Pilot Library 4C: pilot library 9-mer, SEQ ID NO:24; became A4 of the in-plane matrix (SEQ ID NO:49) (LIKDILERL; synthetic pilot library peptide C4)",Langmuir Affinity (Ka),M. luteus MS2,1 ± 0.6 M^−1 × 10000
same,Monolayer Concentration (N),M. luteus MS2,0.10 ± 0.04 Mol/m^2 × 0.0001
same,Langmuir Affinity (Ka),S. aureus AM1,5 ± 1 M^−1 × 10000
same,Monolayer Concentration (N),S. aureus AM1,0.23 ± 0.2 Mol/m^2 × 0.0001
same,Binding to S. aureus (fluorescent staining),[3],some of the brightest unique staining
"Pilot Library E4: pilot library 9-mer, SEQ ID NO:36 (AMKDAMERM; synthetic pilot library peptide E4)",Binding to dentin,[2],No significant staining
same,Binding to tooth enamel and enamel side of the dentin-enamel junction,[2],clear fluorescent staining
